In ChEMBL document CHEMBL1150344, “Interaction of antagonists with calmodulin: insights from molecular dynamics simulations” (J Med Chem, 2008):

Biological target: Calmodulin-1 (Homo sapiens, UniProt P0DP23)
Assay: Binding affinity to calmodulin

Structure (SMILES): CCCCOc1ccc([C@@H](C)NCCCNCCC(c2ccccc2)c2ccccc2)cc1OCCCC
- Kd: 18 nM
